The test system of assay [1] is EPHB1 kinase domain. The assay is described as follows: ADP-Quest continuous fluorimetric kinase assay (initial rates of consensus peptides). The assay is classed as biochemical, human. The note with it: peptide 100 or 20 μM, kinase 10–50 nM; Figure 2C and supplement 2. An excerpt: A fluorescence-based assay from Eurofins (ADP Quest) was used to measure the Michaelis-Menten kinetic parameters for phosphorylation of the consensus peptides by purified tyrosine kinase domains. In this assay, ADP production as a result of kinase activity is coupled to the production of resorufin, a fluorophore that emits signal at 590 nm. For all experiments, the assay reactions were set up as described in the provided assay kit protocol, in a 384 well plate format. The peptide solutions were serially diluted in 100 mM Tris, pH 8.0, and the kinases were diluted to 50 nM in buffer (10 mM HEPES, 100 mM NaCl, 1 mM TCEP, 5 mM MgCl2, 10% (v/v) glycerol). The final reaction mixtures contained 10 nM of kinase with 100 μM of ATP. […] Phosphorylation reaction progress was monitored by measuring fluorescence at excitation 530 nm and emission 590 nm every 2 min at 37 °C on a plate reader (BioTek Synergy Neo 2). The fluorescence units (RFU) were converted to μM ADP by comparison to a standard curve, and the initial rates were extracted from the linear regime of the reaction progress curves. Initial rates were also measured for samples containing each kinase but lacking a peptide substrate, to account for background ATP hydrolysis. This background rate was subtracted from the rates measured in the presence of peptide. […]

The target in assay [2] is T1, c-Src kinase domain (Homo sapiens, UniProt P12931). The assay is described as follows: pTyr-Var library bacterial peptide display kinase screen (enrichment scores). The assay is classed as biochemical. The note with it: sheet "Src".
For another assay, the system named is EPHB2 kinase domain. The description is as above. The format is biochemical, human. The note with it: sheet EPHB2.
In a further assay the target is T2, c-Abl kinase domain (Mus musculus, UniProt P00520).
T2 sequence (P00520 242-493 limits assumed): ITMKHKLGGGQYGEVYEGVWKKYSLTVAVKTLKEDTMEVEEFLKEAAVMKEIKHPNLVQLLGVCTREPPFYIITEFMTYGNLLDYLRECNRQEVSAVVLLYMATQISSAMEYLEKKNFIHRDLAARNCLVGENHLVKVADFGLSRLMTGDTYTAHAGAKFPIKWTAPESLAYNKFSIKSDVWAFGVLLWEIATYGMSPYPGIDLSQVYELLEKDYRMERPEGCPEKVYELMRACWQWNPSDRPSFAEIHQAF
The assay can be described thus: RP-HPLC assay to measure peptide phosphorylation kinetics. The note with it: purified peptide substrate. The assay is classed as biochemical.

Assay [3] deals with EPHB1 kinase domain. The assay can be described thus: pTyr-Var library bacterial peptide display kinase screen (enrichment scores). The assay is classed as biochemical, human. To be noted: for Screen: sheet EPHB1, effect of the variant peptide relative to its reference peptide in the pTyr-Var library screen (enrichment scores).
Assay [4] deals with T1, c-Src kinase domain. The assay can be described thus: RP-HPLC assay to measure peptide phosphorylation kinetics. The assay is classed as biochemical. To be noted: purified peptide substrate.
A further assay concerns Fer kinase domain. The assay can be described thus: pTyr-Var library bacterial peptide display kinase screen (enrichment scores). The assay is classed as biochemical, mouse. To be noted: sheet "Fer".
The target in assay [5] is mouse c-Abl kinase domain (residues 232-502) (mouse) (UniProt P00520).
Sequence of mouse c-Abl kinase domain (residues 232-502) (mouse) (P00520 232-502): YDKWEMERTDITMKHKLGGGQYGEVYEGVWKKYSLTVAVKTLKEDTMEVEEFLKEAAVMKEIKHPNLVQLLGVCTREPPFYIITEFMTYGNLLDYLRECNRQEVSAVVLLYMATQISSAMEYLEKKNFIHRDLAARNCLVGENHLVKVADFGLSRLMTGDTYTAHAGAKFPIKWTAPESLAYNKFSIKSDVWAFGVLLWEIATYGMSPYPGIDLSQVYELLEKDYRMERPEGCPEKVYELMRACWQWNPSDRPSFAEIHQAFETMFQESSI
Assay [6] has as its target human c-Src SH2 domain (residues 143-250) (human, UniProt P12931-1 143-250, biotin on the Avi tag (co-expression with the biotin ligase BirA)). The assay can be described thus: fluorescence polarisation; direct titration: varying concentrations of c-Src SH2 with 30 nM fluorescent peptide, 15 min; 60 mM HEPES pH 7.2, 75 mM KCl, 75 mM NaCl, 1 mM EDTA, 0.05% Tween 20; 25 °C; quadratic binding equation. To be noted: both partners purified.

Setting [7] is: effect of the variant peptide relative to its reference peptide in the pTyr-Var library screen.
[8] abbreviates: effect of variant peptide relative to its reference peptide in the pTyr-Var library screen (enrichment scores).
Where [9] appears, read: value of the variant peptide against its reference peptide in the pTyr-Var library screen with Fer.
[10] abbreviates: variant peptide versus its reference peptide in the pTyr-Var library screen.
Where [11] appears, read: variant peptide relative to its reference peptide, pTyr-Var library screen enrichment.

What is called Kd is the constant that tells how readily two partners part at equilibrium. Low readings indicate a tighter complex, high ones a looser complex.

Square brackets hold non-standard residues; d marks the D form. * marks the point of attachment. FITC = O=C1OC2(c3ccc(O)cc3Oc3cc(O)ccc32)c2ccc(NC(=S)*)cc21; pY = N[C@@H](Cc1ccc(OP(=O)(O)O)cc1)C(=O)O; Ahx = NCCCCCC(=O)O

Consider “Ac-GPPEPNYEVIPPKKKG-NH2 [EPHB1 Consensus, EPHB1 consensus substrate peptide from X5-Y-X5 screen]”, for which, in the assay on EPHB1 kinase domain [1], the “phosphorylation of consensus peptide by EPHB1 (initial rate relative to cognate consensus)” value is on record as “did not prefer”.
Turning to “Ac-GNLLIYTELGK-NH2 [HGD_Y166_F169L, pTyr-Var library variant peptide, non-canonical c-Abl substrate]”, the values for the Screen on c-Src kinase domain [2] (setting [7]), in the assay with EPHB2 kinase domain (setting [8]) and with EPHB1 kinase domain [3] were -0.3242, 1.177 and 1.156, respectively. On c-Abl kinase domain, the “Phosphorylation Rate” value turned out to be 0.238 s⁻¹.
As for Ac-IGEGTYGTVFK-NH2 [CDK5-Y15], the “Phosphorylation Rate” value at c-Abl kinase domain worked out at 0.085 s⁻¹; on c-Src kinase domain [4], 2.587 s⁻¹.
Turning to SNTFLYQLVFD [EXO1_Y284_N279S], the Screen at c-Src kinase domain [2] (setting [7]) is -0.03965; with EPHB2 kinase domain (setting [8]) it was -0.053; with EPHB1 kinase domain [3] it was 0.05167; in the assay with Fer kinase domain (setting [9]), -0.008577.
On to LEDPMYDIIRD [RP9_Y142_H137L], for which the Screen on c-Src kinase domain [2] (setting [10]) worked out at 0.5395; in the assay on EPHB2 kinase domain (setting [8]) it was 0.7516; in the assay on EPHB1 kinase domain [3], 0.4802; with Fer kinase domain (setting [11]), 0.5422.
Consider HMEAVYIDIAD [PITPNA_Y140_V136M], for which the Screen is listed as 0.9488 on c-Src kinase domain [2] (setting [10]), 1.927 in the assay on EPHB2 kinase domain (setting [8]), 1.841 in the assay with EPHB1 kinase domain [3] and 1.696 in the assay on Fer kinase domain (setting [9]).
On to Ac-IGEGTYGQVFK-NH2 [CDK13_Y716_YF], for which, on c-Src kinase domain [4], the “Phosphorylation Rate” value is 3.100 s⁻¹.
Take TLSGIYQFNIA [FOXL2_Y81_I84N_YF]: the Screen on c-Src kinase domain [2] (setting [7]) is -0.3308; with EPHB2 kinase domain (setting [8]), -4.083; with EPHB1 kinase domain [3], -4.223; with Fer kinase domain (setting [9]), -1.015.
In the case of AAAAVYTFLPD [MYORG_Y36_M35V], the Screen was 0.6423 on c-Src kinase domain [2] (setting [10]), 0.71 with EPHB2 kinase domain (setting [8]), 0.3532 in the assay on EPHB1 kinase domain [3] and 0.8509 with Fer kinase domain (setting [9]).
As for DNEALYDICFC [TUBB3_Y208_R213C], the Screen at c-Src kinase domain [2] (setting [10]) is recorded as 0.09389; in the assay on EPHB2 kinase domain (effect of the variant relative to its reference peptide in the pTyr-Var library screen) it was 0.1536; in the assay with Fer kinase domain (setting [11]), 0.2993. Besides, the “Screen (variant relative to reference peptide, measured in the pTyr-Var library screen)” value in the assay on EPHB1 kinase domain [3] (sheet "EPHB1", variant seq vs reference seq, bacterial peptide display enrichment) is -0.1227.
As for TTSQLYDAMPI [PDPK1_Y9_V12M], the Screen on c-Src kinase domain [2] (setting [10]) is recorded as -0.9144; with EPHB2 kinase domain (setting [8]) it was -1.368; with EPHB1 kinase domain [3], -0.6854; in the assay with Fer kinase domain (setting [9]) it was -0.6658.
“Ac-IGEGTYRQVFK-NH2 [CDK13_Y716_G717R_YF, pTyr-Var library variant phosphosite peptide]” gave a Screen on c-Src kinase domain [2] (setting [7]) of -4.535. On c-Src kinase domain [4], the “Phosphorylation Rate” value is 0.195 s⁻¹.
With ITNHIYTWVDP [DFNB31_Y234_V229I], the Screen is 0.3882 on c-Src kinase domain [2] (setting [7]), -0.0087 in the assay on EPHB2 kinase domain (setting [8]), 0.06659 in the assay on EPHB1 kinase domain [3] and -0.03067 in the assay on Fer kinase domain (setting [9]).
For ITSLLYHVVGW [GBA_Y412_N409S], in that order: -0.3669, -0.2083, -0.08421 and 0.08882.
Regarding FNSLLYQVPTS [CALCOCO2_Y358_P357L], the Screen at c-Src kinase domain [2] (setting [7]) is 2.72; with EPHB2 kinase domain (setting [8]), 5.149; in the assay on EPHB1 kinase domain [3], 4.751; in the assay on Fer kinase domain (setting [9]), 3.519.
With Ac-GPDEPIYAVPPIKKKG-NH2 [Abl Consensus peptide Ac-…-NH2], the KM (μM) of phosphorylation, Michaelis-Menten analysis, ADP-Quest assay in [5] was 6 µM.

B1: fluorescently-labeled c-Src-SH2 consensus peptide FITC-Ahx-GDG(pY)EEISPLLL-NH2 (peptide)
peptide: {FITC-Ahx}-GDG[pY]EEISPLLL-NH2
SMILES: CC[C@H](C)[C@H](NC(=O)[C@H](CCC(=O)O)NC(=O)[C@H](CCC(=O)O)NC(=O)[C@H](Cc1ccc(OP(=O)(O)O)cc1)NC(=O)CNC(=O)[C@H](CC(=O)O)NC(=O)CNC(=O)CCCCCNC(=S)Nc1ccc2c(c1)C(=O)OC21c2ccc(O)cc2Oc2cc(O)ccc21)C(=O)N[C@@H](CO)C(=O)N1CCC[C@H]1C(=O)N[C@@H](CC(C)C)C(=O)N[C@@H](CC(C)C)C(=O)N[C@@H](CC(C)C)C(N)=O
notes: also called fluorescent peptide; source: gift from the Amacher lab (Western Washington University)
Molecule B1 came in with a Kd in [6] of 160 nM.

The record behind these values is paper PMC10065799, “High-throughput profiling of sequence recognition by tyrosine kinases and SH2 domains using bacterial peptide display” (eLife, 2023).
